Data taken from patent US11021481B2, “Substituted isoindolin-1-ones and 2,3-dihydro-1h-pyrrolo[3,4-c]pyridin-1-ones as HPK1 antagonists” (Nimbus Saturn, Inc., priority 2019, dated 2021).
pIC50: −log10 of the molar value.

These molecules were tested against HPK1 (Homo sapiens (Human), UniProt Q92918) (assay: HPK1 biochemical enzyme assay (microfluidic mobility shift assay)). Conditions: 1.5 nM HPK1, ATP 1 mM final, 30 min preincubation, 60 min at RT, Caliper EZ Reader; read-out: HPK1 1000UMATP caliper IC50.
Method in brief: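 Mobility shift readout of HPK1 activity after a 60 min RT reaction with 1 mM ATP, 1 μM substrate and 5 mM MgCl2. Enzyme/substrate mix was first exposed to compounds for 30 min, using ten-point curves topping at 3 μM final.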

Sequence of HPK1 (Q92918 whole entry): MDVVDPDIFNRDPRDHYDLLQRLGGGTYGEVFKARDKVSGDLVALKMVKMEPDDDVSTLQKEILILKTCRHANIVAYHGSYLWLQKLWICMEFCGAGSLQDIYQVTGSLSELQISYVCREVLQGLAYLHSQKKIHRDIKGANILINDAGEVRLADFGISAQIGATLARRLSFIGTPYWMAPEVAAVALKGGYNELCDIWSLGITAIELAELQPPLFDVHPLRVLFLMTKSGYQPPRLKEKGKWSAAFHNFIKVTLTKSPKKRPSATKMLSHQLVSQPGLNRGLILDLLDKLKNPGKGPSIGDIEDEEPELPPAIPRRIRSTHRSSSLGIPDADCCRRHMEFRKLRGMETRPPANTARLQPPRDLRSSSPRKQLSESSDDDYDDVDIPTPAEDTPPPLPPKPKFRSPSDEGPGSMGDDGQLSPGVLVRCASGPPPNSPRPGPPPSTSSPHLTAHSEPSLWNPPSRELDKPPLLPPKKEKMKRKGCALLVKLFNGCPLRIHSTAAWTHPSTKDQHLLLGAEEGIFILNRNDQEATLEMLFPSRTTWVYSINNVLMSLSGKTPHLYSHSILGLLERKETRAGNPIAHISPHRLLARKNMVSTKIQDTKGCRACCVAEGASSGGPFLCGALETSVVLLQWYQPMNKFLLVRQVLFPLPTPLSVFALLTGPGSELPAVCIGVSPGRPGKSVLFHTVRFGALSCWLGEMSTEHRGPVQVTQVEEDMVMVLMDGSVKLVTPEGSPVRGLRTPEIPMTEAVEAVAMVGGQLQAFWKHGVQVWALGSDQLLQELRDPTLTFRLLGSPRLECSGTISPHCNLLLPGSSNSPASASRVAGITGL

Row | Molecule | pIC50
1 | Cn1ccc2c(-c3ncc(Nc4cccc(N5CC[C@@H]6CNC[C@@H]65)n4)c4c3CNC4=O)ccnc21 [I-441, 7-((6-((3aR,6aR)-hexahydro-pyrrolo[3,4-b]pyrrol-1(2H)-yl)pyridin-2-yl)amino)-4-(1-methyl-1H-pyrrolo[2,3-b)pyridin-4-yl)-2,3-dihydro-1H-pyrrolo[3,4-c]pyridin-1-one] | 6.00 to 7.00
2 | CN(C)Cc1nc(Nc2cnc(-c3ccnc4c3ccn4C)c3c2C(=O)NC3)ccc1[C@H]1CCOC1 [I-708, (R)-7-((6-((dimethylamino)methyl)-5-(tetrahydrofuran-3-yl)pyridin-2-yl)amino)-4-(1-methyl-1H-pyrrolo[2,3-b]pyridin-4-yl)-2,3-dihydro-1H-pyrrolo[3,4-c]pyridin-1-one] | > 7.00
3 | C[C@H]1CCn2c(-c3ccc(Nc4ccc(N5CCC(O)CC5)cn4)c4c3CNC4=O)cnc2C1 [I-303, (S)-7-((5-(4-hydroxy-piperidin-1-yl)pyridin-2-yl)amino)-4-(7-methyl-5,6,7.8-tetrahydroimi-dazo[1,2-a]pyridin-3-yl)isoindolin-1-one] | > 7.00
4 | Cc1cc2[nH]cc(-c3ccc(Nc4ccc(N5CCN(C)CC5)cn4)c4c3CNC4=O)c2cn1 [I-37, 7-[[5-(4-methylpiperazin-1-yl)-2-pyridyl]amino]-4-(6-methyl-1H-pyrrolo[3,2-c]pyridin-3-yl)isoindolin-1-one] | > 7.00
5 | O=C1NCc2c(-c3cnc4cc(OCCO)ccn34)ccc(Nc3ccc(N4CCOCC4)cn3)c21 [I-201, 4-[7-(2-hydroxyeth-oxy)imidazo[1,2-a]pyridin-3-yl]-7-[(5-morpholino-2-pyridyl)amino] isoindolin-1-one] | > 7.00
6 | COC1CN(Cc2nc(Nc3ccc(-c4cnc5cc(F)ccn45)c4c3C(=O)NC4)ccc2[C@H]2CCOC2)C1 [I-548, (R)-4-(7-fluoroimidazo [1,2-a]pyridin-3-yl)-7-((6-((3-methoxyazet-idin-1-yl)methyl)-5-(tetrahydrofuran-3-yl)pyridin-2-yl)amiiio)isoin-dolin-1-one] | > 7.00
7 | COc1cc(Nc2ccc(-c3cnc4cc(F)ccn34)c3c2C(=O)NC3)ncc1N1CCC(O)CC1 [I-372, 4-(7-fluoroimidazo [1,2-a]pyridin-3-yl)-7-((5-(4-hydroxypipendin-1-yl)-4-methoxypyridin-2-yl)amino)isoin-dolin-1-one] | > 7.00
8 | CN(C)Cc1cccc(Nc2ccc(-c3cnc4cc(F)ccn34)c3c2C(=O)NC3)n1 [I-699, 7-((6-((dimethylamino)methyl)pyri-din-2-yl)amino)-4-(7-fluoroimidazo [1,2-a]pyridin-3-yl)isoindolin-1-one] | > 7.00
9 | O=C1NCc2c(-c3cnc4cc(F)ccn34)ccc(Nc3ccc(CN4CCOCC4)cn3)c21 [I-238, 4-(7-fluoroimidazo [1,2-a]pyridin-3-yl)-7-[[5-(morpholino-methyl)-2-pyripyl]amino] isoindolin-1-one] | > 7.00
10 | Cn1ccn2c(-c3ccc(Nc4ccc(N5CCC(O)CC5)cn4)c4c3CNC4=O)cnc2c1=O [I-168, 3-[7-[[5-(4-hydroxy-1-piperidyl)-2-pyridyl]amino]-1-oxo-isoindolin-4-yl]-7-methyl-imidazo[1,2-a]pyrazin-8-one] | > 7.00
11 | CC1(C)CNCCN1Cc1ccc(Nc2ccc(-c3cnc4c(F)c(C(F)F)ccn34)c3c2C(=O)NC3)nc1 [I-655, 4-(7-(difluoromethvl)-8-fluoroimidazo [1,2-a]pyridin-3-yl)-7-((5-((2,2-dimethylpiperazin-1-yl)methyl)pyridin-2-yl)amino)isoin-dolin-1-one] | > 7.00
12 | Cn1ccc2c(-c3ncc(Nc4cccc(N5CC[C@H]6CNC[C@H]65)n4)c4c3CNC4=O)ccnc21 [I-440, 7-((6-((3aS,6aS)-hexahydropy-rrolo[3,4-b]pyrrol-(2H)-yl)pyridin-2-yl)amino)-4-(1-methyl-1H-pyrrolo[2,3-b]pyridin-4-yl)-2,3-dihydro-1H-pyrrolo[3,4-c]pyridin-1-one] | > 7.00
13 | Cc1ccc2ncc(-c3ccc(Nc4ccc(N5CCC(O)CC5)cn4)c4c3CNC4=O)n2c1 [I-134, 7-[[5-(4-hydroxy-1-piperidyl)-2-pyridyl]amino]-4-(6-methylimidazo [1,2-a]pyridin-3-yl)isoindolin-1-one] | > 7.00
14 | O=C1NCc2c(-c3ccnc4c3ccn4C(F)F)ccc(Nc3ccc(N4CCNCC4)cn3)c21 [I-119, 4-[l-(difluorometh-yl)pyrrolo[2,3-b]pyridin-4-yl]-7-[(5-piperazin-1-yl-2-pyridyl)amino] isoindolin-1-one] | > 7.00
15 | CN1CCN(c2ccc(Nc3ccc(-c4c[nH]c5ccncc45)c4c3C(=O)NC4)nc2)CC1 [I-24, 7-((5-(4-methylpiperazin-1-yl)pyridin-2-yl)amino)-4-(1H-pyrrolo[3,2-c]pyridin-3-yl)isoindolin-1-one] | > 7.00
16 | (R)-7-((5-(4-hydroxypiperidin-1-yl)pyridin-2-yl)amino)-3-methyl-4-(1-methyl-1H-pyrrolo[2,3-b]pyridin-4-yl)isoindolin-1-one [I-287] | > 7.00

Row | Molecule | pIC50
17 | Cc1ccn2c(-c3ccc(Nc4ccc([C@@H]5CCOC5)c(CN(C)C)n4)c4c3CNC4=O)cnc2c1F [I-704, (S)-7-((6-((dimethylamino)-methyl)-5-(tetrahydrofuran-3-yl)pyridin-2-yl)amino)-4-(8-fluoro-7-methylimidazo [1,2-a]pyridin-3-yl)isoindolin-1-one] | > 7.00
18 | O=C1NCc2c(-c3cnc4cc(F)ccn34)ccc(Nc3ccc(N4CCC[C@@H](N5CCOCC5)C4)cn3)c21 [I-502, (R)-4-(7-fluoroimidazo [1,2-a]pyridin-3-yl)-7-((5-(3-morpholinopip-eridin-1-yl)pyridin-2-yl)amino)isoin-dolin-1-one] | > 7.00
19 | O=C1NCc2c(-c3cnc4cc(F)ccn34)ccc(Nc3ccc(N4CCCC5(CNCCO5)C4)cn3)c21 (centres unmarked) [I-500, 4-(7-fluoroimidazo [1,2-a]pyridin-3-yl)-7-[[5-(1-oxa-4,8-diazaspiro[5.5]undecan-8-yl)-2-pyridyl]amino] isoindolin-1-one] | > 7.00
20 | CN(C)CC1(O)CCN(c2ccc(Nc3ccc(-c4cnc5cc(F)ccn45)c4c3C(=O)NC4)nc2)CC1 [I-366, 7-((5-(4-((dimethylamino)-methyl)-4-hydroxypiperidin-1-yl)pyridin-2-yl)amino)-4-(7-fluoroimidazo [1,2-a]pyridin-3-yl)isoindolin-1-one] | > 7.00
21 | CCN(CC)Cc1nc(Nc2ccc(-c3cnc4cc(F)ccn34)c3c2C(=O)NC3)ccc1C1CCOC1 (centres unmarked) [I-504, 7-[[6-(diethylaminomethyl)-5-tetrahydrofuran-3-yl-2-pyridyl]amino]-4-(7-fluoroimidazo [1,2-a]pyridin-3-yl)isoindolin-1-one] | > 7.00
22 | O=C1NCc2c(-c3cccn4ccnc34)ncc(Nc3ccc(N4CCC(O)CC4)cn3)c21 [I-384, 7-((5-(4-hydroxy-piperidin-1-yl)pyridin-2-yl)amino)-4-(imidazo[1,2-a]pyridin-8-yl)-2,3-dihydro-1H-pyrrolo[3,4-c]pyridin-1-one] | < 6.00
23 | CN(Cc1nc(Nc2ccc(-c3cnc4cc(F)ccn34)c3c2C(=O)NC3)ccc1[C@H]1CCOC1)C1COC1 [I-743, (R)-4-(7-fluoroimidazo [1,2-a]pyridin-3-yl)-7-((6-((methyl(oxe-tan-3-yl)amino)meth-yl)-5-(tetrahydrofuran-3-yl)pyridin-2-yl)amino)isoin-dolin-1-one] | > 7.00
24 | N#Cc1ccn2c(-c3ccc(Nc4ccc(N5CCOCC5)cn4)c4c3CNC4=O)cnc2c1 [I-183, 3-[7-[(5-morpholino-2-pyridyl)amino]-1-oxo-isoindolin-4-yl]imidazo[1,2-a]pyridine-7-carbonitrile] | > 7.00
25 | O=C1NCc2c(-c3ccnc4ccnn34)ccc(Nc3ccc(N4CCNCC4)cn3)c21 [I-127, 7-[(5-piperazin-1-yl-2-pyridyl)amino]-4-pyrazolo[1,5-a]pyrimidin-7-yl-isoindolin-1-one] | < 6.00
26 | Cc1ccc2c(-c3ccc(Nc4ccc(N5CCO[C@H](C(C)(C)O)C5)cn4)c4c3CNC4=O)cnn2c1 [I-489, 7-[[5-[(2S)-2-(1-hydroxy-1-methylethyl)morpholin-4-yl]-2-pyripyl]amino]-4-(6-methylpyrazo-lo[1,5-a]pyridin-3-yl)isoindolin-1-one] | > 7.00
27 | Cn1ccc2c(-c3ccc(Nc4ccc(N5CC6CCC(C5)N6)cn4)c4c3CNC4=O)ccnc21 [I-70, 7-[[5-(3,8-diazabicyc1o [3,2.1]octan-3-yl)-2-pyridyl]amino]-4-(1-methylpyrrolo [2,3-b]pyridin-4-yl)isoindolin-1-one] | > 7.00
28 | Cn1ccc2c(-c3ccc(-n4ccc(N5CCC[C@@](C)(O)C5)n4)c4c3CNC4=O)ccnc21 (single isomer, unassigned) [I-305] | < 6.00
29 | O=C1NCc2c(-c3cnc4cc(F)ccn34)ccc(Nc3ccc(N4CCC(CN5CCOCC5)CC4)cn3)c21 [I-428, 4-(7-fluoroimidazo [1,2-a]pyridin-3-yl)-7-((5-(4-(morpholinomethyl)piperidin-1-yl)pyridin-2-yl)amino)isoin-dolin-1-one] | > 7.00
30 | CN1CCN(CC2(O)CCCN(c3ccc(Nc4ccc(-c5cnc6cc(F)ccn56)c5c4C(=O)NC5)nc3)C2)CC1 (centres unmarked) [I-388, 4-(7-fluoroimidazo [1,2-a]pyridin-3-yl)-7-((5-(3-hydroxy-3-((4-methylpiperazin-1-yl)methyl)piper-idin-1-yl)pyridin-2-yl)amino)isoin-dolin-1-one] | > 7.00
31 | Cc1ccn2c(-c3ccc(Nc4ccc(N5CCC(O)(CN6CCOCC6)CC5)cn4)c4c3CNC4=O)cnc2c1F [I-439, 4-(8-fluoro-7-methylimidazo [1,2-a]pyridin-3-yl)-7-((5-(4-hydroxy-4-(morpholinomethyl)piperidin-1-yl)pyridin-2-yl)amino)isoin-dolin-1-one] | > 7.00
32 | O=C1NCc2c(-c3cnc4cc(F)ccn34)ccc(Nc3ccc(N4CCO[C@@H](C5(O)CC5)C4)cn3)c21 (single isomer, unassigned) [I-663] | > 7.00
